According to PubChem BioAssay AID2045 (NMMLSC, 2009):

Target: Ras-related protein Rab-2A (Canis lupus familiaris) (UniProt P61105)
Test: Rab2 wildtype GTP-binding inhibitors, SAR follow-up, biochemical, pyrazoline series, Bodipy-FL-GTP, flow cytometry, multiplex (AID 2045)
Details: Bead-based flow cytometry, Bodipy-FL-GTP binding to Rab2; Ki calculated from EC50

Ras-related protein Rab-2A (Canis lupus familiaris), sequence (P61105 whole entry, looked up): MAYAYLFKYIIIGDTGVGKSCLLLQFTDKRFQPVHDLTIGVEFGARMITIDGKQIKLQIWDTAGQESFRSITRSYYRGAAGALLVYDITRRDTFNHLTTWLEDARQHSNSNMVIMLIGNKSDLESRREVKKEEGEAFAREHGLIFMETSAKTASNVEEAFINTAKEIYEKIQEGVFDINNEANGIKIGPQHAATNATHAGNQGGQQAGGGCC

| SMILES | Ki [nM] |
| --- | --- |
| COc1ccc(C2=NN(c3cccc(F)c3)C(c3ccc(OC)cc3)C2)cc1 (configuration not stated) | 60 |
| COc1ccc(C2=NN(c3ccc(S(N)(=O)=O)cc3)C(c3ccc(OC)cc3)C2)cc1 (configuration not stated) | 110 |
